Columns and labels:
[1] = test system: HCC-2998; conditions: HCC-2998 (Colon Cancer), 48 hours, SRB
[2] = test system: OVCAR-4; conditions: OVCAR-4 (Ovarian Cancer), 48 hours, SRB
[3] = test system: UACC-257; conditions: UACC-257 (Melanoma), 48 hours, SRB
[4] = test system: M14; assay: cells; conditions: Homo sapiens, M14, 48 h
[5] = test system: MCF7; conditions: MCF7 (Breast Cancer), 48 hours, SRB
[6] = test system: OVCAR-8; conditions: OVCAR-8 (Ovarian Cancer), 48 hours, SRB
[7] = test system: RXF 393; conditions: RXF 393 (Renal Cancer), 48 hours, SRB
[8] = test system: SK-OV-3; conditions: SK-OV-3 (Ovarian Cancer), 48 hours, SRB
[9] = test system: BT-549; conditions: BT-549 (Breast Cancer), 48 hours, SRB
[10] = test system: T-47D; conditions: T-47D (Breast Cancer), 48 hours, SRB
[11] = test system: CCRF-CEM; conditions: CCRF-CEM (Leukemia), 48 hours, SRB
[12] = test system: PC-3; conditions: PC-3 (Prostate Cancer), 48 hours, SRB
[13] = test system: U251; conditions: U251 (CNS Cancer), 48 hours, SRB
[14] = test system: TK-10; conditions: TK-10 (Renal Cancer), 48 hours, SRB
[15] = test system: NCI-H522; conditions: NCI-H522 (Non-Small Cell Lung Cancer), 48 hours, SRB
[16] = test system: CCRF-CEM; assay: cells; conditions: Homo sapiens, 48 h
[17] = test system: BT-549; assay: cells; conditions: Homo sapiens, BT-549, 48 h
[18] = test system: SR; conditions: SR (Leukemia), 48 hours, SRB
[19] = test system: MDA-MB-468; assay: cells; conditions: Homo sapiens, MDA-MB-468, 48 h
[20] = test system: MOLT-4; conditions: MOLT-4 (Leukemia), 48 hours, SRB
[21] = test system: UO-31; conditions: UO-31 (Renal Cancer), 48 hours, SRB
[22] = test system: MDA-MB-468; conditions: MDA-MB-468 (Breast Cancer), 48 hours, SRB
[23] = test system: K-562; conditions: K-562 (Leukemia), 48 hours, SRB
[24] = test system: SK-MEL-5; assay: cells; conditions: Homo sapiens, SK-MEL-5, 48 h
[25] = test system: M14; conditions: M14 (Melanoma), 48 hours, SRB
[26] = test system: ACHN; conditions: ACHN (Renal Cancer), 48 hours, SRB
[27] = test system: NCI/ADR-RES; conditions: NCI/ADR-RES (Breast Cancer), 48 hours, SRB
[28] = test system: TK-10; assay: cells; conditions: Homo sapiens, TK-10, 48 h
[29] = test system: NCI-H226; conditions: NCI-H226 (Non-Small Cell Lung Cancer), 48 hours, SRB
[30] = test system: SN12C; conditions: SN12C (Renal Cancer), 48 hours, SRB
[31] = test system: SF-539; conditions: SF-539 (CNS Cancer), 48 hours, SRB
[32] = test system: SK-MEL-5; conditions: SK-MEL-5 (Melanoma), 48 hours, SRB

With `[2H]On1c2c(c3ccc4c(c31)C=CC(C)(C)O4)C(OC([2H])([2H])[2H])[C@@]13NC(=O)C4(CCCN4C1=O)CC3C2(C)C` (some centres unmarked) [Deuterated Methanol Adduct] the TGI [1] was 2010 nM, the TGI [2] was 1630 nM and the TGI [3] was 1890 nM. It also gave a GI50 [4] of 1060 nM, a CC50 ([4]; read-out: LC50) of 5900 nM and a TGI [5] of 1330 nM. For the same compound, the TGI [6] was 2170 nM, the TGI [7] was 625 nM and the TGI [8] was 2160 nM. It also gave a TGI [9] of 1990 nM, a TGI [10] of 1380 nM and a TGI [11] of 704 nM. For the same compound, the TGI [12] was 2020 nM, the TGI [13] was 1370 nM and the TGI [14] was 2350 nM. It also gave a TGI [15] of 1800 nM, a GI50 [16] of 185 nM and a CC50 ([16]; read-out: LC50) of 4600 nM. It also gave a GI50 [17] of 598 nM, a CC50 ([17]; read-out: LC50) of 4690 nM and a TGI [18] of 1250 nM. It also gave a GI50 [19] of 292 nM, a CC50 ([19]; read-out: LC50) of 6960 nM and a TGI [20] of 1380 nM. It also gave a TGI [21] of 1840 nM, a TGI [22] of 1780 nM and a TGI [23] of 3070 nM. The GI50 [24] was 1410 nM, the CC50 ([24]; read-out: LC50) was 5230 nM and the TGI [25] was 2500 nM. The TGI [26] was 2530 nM, the TGI [27] was 9950 nM and the GI50 [28] was 1070 nM. The CC50 ([28]; read-out: LC50) was 5150 nM, the TGI [29] was 1700 nM and the TGI [30] was 2320 nM. It also gave a TGI [31] of 1460 nM and a TGI [32] of 2710 nM.

From patent US20110105515A1, “TARGETING THE ONCOPROTEIN NUCLEOPHOSMIN” (President and Fellows of Harvard College, priority 2007, published 2011)
